Target: IDH1 R132H (Homo sapiens (Human), UniProt O75874, R132H)
Experiment: Assays for IDH1 R132H Inhibitors (NADPH/aKG, resazurin detection)
Format: biochemical
Details: IDH1 R132H enzyme, Table 2; read-out: IDHR132H Activity
Method in brief: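 Substrate mix held 8 uM NADPH plus 2 mM aKG; buffer was 20 mM Tris pH 7.5 with 150 mM NaCl, 10 mM MgCl2, 0.03% BSA. After 50 min room-temperature reaction, NADPH remaining was detected with 30 μM resazurin mix over 5 min.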

Chain of IDH1 R132H (O75874 whole entry R132H): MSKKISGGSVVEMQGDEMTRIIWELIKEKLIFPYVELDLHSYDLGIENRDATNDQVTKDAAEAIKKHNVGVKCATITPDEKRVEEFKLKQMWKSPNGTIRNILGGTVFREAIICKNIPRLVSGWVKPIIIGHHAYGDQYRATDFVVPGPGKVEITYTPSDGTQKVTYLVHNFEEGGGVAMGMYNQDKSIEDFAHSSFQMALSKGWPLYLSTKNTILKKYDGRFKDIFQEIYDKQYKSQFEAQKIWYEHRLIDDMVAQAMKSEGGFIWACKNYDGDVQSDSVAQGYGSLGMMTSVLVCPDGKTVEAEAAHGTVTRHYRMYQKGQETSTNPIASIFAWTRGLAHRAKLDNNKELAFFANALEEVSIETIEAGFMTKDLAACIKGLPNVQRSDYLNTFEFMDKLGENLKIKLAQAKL

CC(C)[C@@H]1CN(c2nc(C3CC3)c3c(c2C#N)CC(C)(C)OC3)CCN1C(=O)CNC1CC1 [Compound 372, (R)-8-cyclopropyl-6-(4-(2-(cyclopropylamino)acetyl)-3-isopropylpiperazin-1-yl)-3,3-dimethyl-3,4-dihydro-1H-pyrano[3,4-c]pyridine-5-carbonitrile]
IC50: 1000 to 10000 nM

C#CCNCC(=O)N1CCN(c2nc(C3CC3)c3c(c2C#N)CC(C)(C)OC3)C[C@H]1C(C)C [Compound 373, (R)-8-cyclopropyl-6-(3-isopropyl-4-(2-(prop-2-ynylamino)acetyl)piperazin-1-yl)-3,3-dimethyl-3,4-dihydro-1H-pyrano[3,4-c]pyridine-5-carbonitrile]
IC50: 1000 to 10000 nM

CC(C)[C@@H]1CN(c2nc(C3CC3)c3c(c2C#N)CC(C)(C)OC3)CCN1C(=O)Cn1ccnc1 [Compound 374, (R)-6-(4-(2-(1H-imidazol-1-yl)acetyl)-3-isopropylpiperazin-1-yl)-8-cyclopropyl-3,3-dimethyl-3,4-dihydro-1H-pyrano[3,4-c]pyridine-5-carbonitrile]
IC50: 1000 to 10000 nM

C[C@@H]1CN(c2nc(C3CCCCC3)c3c(c2C#N)CCOC3)CCN1C(=O)C1CC1 [Compound 375, (R)-8-cyclohexyl-6-(4-(cyclopropanecarbonyl)-3-methylpiperazin-1-yl)-3,4-dihydro-1H-pyrano[3,4-c]pyridine-5-carbonitrile]
IC50: 1000 to 10000 nM

CC(C)[C@@H]1CN(c2nc(C3CC3)c3c(c2C#N)CC(C)(C)OC3)CCN1C(=O)C1CC1 [Compound 376, (R)-6-(4-(cyclopropanecarbonyl)-3-isopropylpiperazin-1-yl)-8-cyclopropyl-3,3-dimethyl-3,4-dihydro-1H-pyrano[3,4-c]pyridine-5-carbonitrile]
IC50: < 500 nM

CCCNC(=O)N1CCN(c2nc(C3CCCCC3)c3c(c2C#N)CCOC3)C[C@H]1C [Compound 378, (R)-4-(5-cyano-8-cyclohexyl-3,4-dihydro-1H-pyrano[3,4-c]pyridin-6-yl)-2-methyl-N-propylpiperazine-1-carboxamide]
IC50: 1000 to 10000 nM

CCCC(=O)N1CCN(c2nc(C3CCCCC3)c3c(c2C#N)CCOC3)C[C@H]1C [Compound 379, (R)-6-(4-butyryl-3-methylpiperazin-1-yl)-8-cyclohexyl-3,4-dihydro-1H-pyrano[3,4-c]pyridine-5-carbonitrile]
IC50: 1000 to 10000 nM

Cc1nccn1CC(=O)N1CCN(c2nc(C3CC3)c3c(c2C#N)CC(C)(C)OC3)C[C@H]1C(C)C [Compound 380, (R)-8-cyclopropyl-6-(3-isopropyl-4-(2-(2-methyl-1H-imidazol-1-yl)acetyl)piperazin-1-yl)-3,3-dimethyl-3,4-dihydro-1H-pyrano[3,4-c]pyridine-5-carbonitrile]
IC50: 1000 to 10000 nM

CCCOCC(=O)N1CCN(c2nc(C3CC3)c3c(c2C#N)CC(C)(C)OC3)C[C@H]1C(C)C [Compound 381]
IC50: 500 to 1000 nM

CC(C)[C@@H]1CN(c2nc(C3CC3)c3c(c2C#N)CC(C)(C)OC3)CCN1C(=O)CC1CC1 [Compound 382, (R)-8-cyclopropyl-6-(4-(2-cyclopropylacetyl)-3-isopropylpiperazin-1-yl)-3,3-dimethyl-3,4-dihydro-1H-pyrano[3,4-c]pyridine-5-carbonitrile]
IC50: < 500 nM

CCCC(=O)N1CCN(c2nc(C3CC3)c3c(c2C#N)CC(C)(C)OC3)C[C@H]1C(C)C [Compound 383]
IC50: < 500 nM

CC(C)[C@@H]1CN(c2nc(C3CC3)c3c(c2C#N)CC(C)(C)OC3)CCN1C(=O)COc1cccc(F)c1 [Compound 384]
IC50: 1000 to 10000 nM

CC(C)[C@@H]1CN(c2nc(C3(C)CC3)c3c(c2C#N)CC(C)(C)OC3)CCN1C(=O)c1ccoc1 [Compound 386]
IC50: 1000 to 10000 nM

COC(=O)C1CN(c2nc(C3CC3)c3c(c2C#N)CC(C)(C)OC3)CCN1C(=O)c1ccoc1 (stereo not drawn) [Compound 387]
IC50: 500 to 1000 nM

COCCC(=O)N1CCN(c2nc(C3CC3)c3c(c2C#N)CC(C)(C)OC3)CC1C(=O)OC (stereo not drawn) [Compound 388]
IC50: 500 to 1000 nM

COCCC(=O)N1CCN(c2nc(C3CC3)c3c(c2C#N)CC(C)(C)OC3)C[C@@H]1CC(C)C [Compound 389]
IC50: 1000 to 10000 nM

CC(C)[C@@H]1CN(c2nc(C3CC3)c3c(c2C#N)CC(C)(C)OC3)CCN1C(=O)COCC1CC1 [Compound 390]
IC50: 500 to 1000 nM

CCS(=O)(=O)N1CCN(c2nc(C3CC3)c3c(c2C#N)CC(C)(C)OC3)C[C@H]1C(C)C [Compound 391, (R)-8-cyclopropyl-6-(4-(ethylsulfonyl)-3-isopropylpiperazin-1-yl)-3,3-dimethyl-3,4-dihydro-1H-pyrano[3,4-c]pyridine-5-carbonitrile]
IC50: 1000 to 10000 nM

COC(=O)C1CN(c2nc(C(C)C)c3c(c2C#N)CC(C)(C)OC3)CCN1C(=O)c1ccoc1 (stereo not drawn) [Compound 393, methyl 4-(5-cyano-8-isopropyl-3,3-dimethyl-3,4-dihydro-1H-pyrano[3,4-c]pyridin-6-yl)-1-(furan-3-carbonyl)piperazine-2-carboxylate]
IC50: 500 to 1000 nM

COC(=O)C1CN(c2nc(C3CC3)c3c(c2C#N)CC(C)(C)OC3)CCN1C(=O)c1ccoc1C (stereo not drawn) [Compound 394, methyl 4-(5-cyano-8-cyclopropyl-3,3-dimethyl-3,4-dihydro-1H-pyrano[3,4-c]pyridin-6-yl)-1-(2-methylfuran-3-carbonyl)piperazine-2-carboxylate]
IC50: 500 to 1000 nM

COCCC(=O)N1CCN(c2nc(C3CCC3)c3c(c2C#N)CC(C)(C)OC3)C[C@H]1C(C)C [Compound 395, (R)-8-cyclobutyl-6-(3-isopropyl-4-(3-methoxypropanoyl)piperazin-1-yl)-3,3-dimethyl-3,4-dihydro-1H-pyrano[3,4-c]pyridine-5-carbonitrile]
IC50: < 500 nM

CC(C)[C@@H]1CN(c2nc(C3CCC3)c3c(c2C#N)CC(C)(C)OC3)CCN1C(=O)C1CC1 [Compound 396, (R)-8-cyclobutyl-6-(4-(cyclopropanecarbonyl)-3-isopropylpiperazin-1-yl)-3,3-dimethyl-3,4-dihydro-1H-pyrano[3,4-c]pyridine-5-carbonitrile]
IC50: 500 to 1000 nM

COC(=O)CN1CCN(c2nc(C3CC3)c3c(c2C#N)CC(C)(C)OC3)C[C@H]1C(C)C [Compound 397, (R)-methyl 2-(4-(5-cyano-8-cyclopropyl-3,3-dimethyl-3,4-dihydro-1H-pyrano[3,4-c]pyridin-6-yl)-2-isopropylpiperazin-1-yl)acetate]
IC50: 1000 to 10000 nM

CC(C)[C@@H]1CN(c2nc(C3CC3)c3c(c2C#N)CC(C)(C)OC3)CCN1C(=O)NC1CC1 [Compound 398, (R)-4-(5-cyano-8-cyclopropyl-3,3-dimethyl-3,4-dihydro-1H-pyrano[3,4-c]pyridin-6-yl)-N-cyclopropyl-2-isopropylpiperazine-1-carboxamide]
IC50: 1000 to 10000 nM

CC(C)[C@@H]1CN(c2nc(C3CC3)c3c(c2C#N)CC(C)(C)OC3)CCN1C(=O)COc1cccnc1 [Compound 399, (R)-8-cyclopropyl-6-(3-isopropyl-4-(2-(pyridin-3-yloxy)acetyl)piperazin-1-yl)-3,3-dimethyl-3,4-dihydro-1H-pyrano[3,4-c]pyridine-5-carbonitrile]
IC50: 1000 to 10000 nM

Cc1ccn(CC(=O)N2CCN(c3nc(C4CC4)c4c(c3C#N)CC(C)(C)OC4)C[C@H]2C(C)C)n1 [Compound 400, (R)-8-cyclopropyl-6-(3-isopropyl-4-(2-(3-methyl-1H-pyrazol-1-yl)acetyl)piperazin-1-yl)-3,3-dimethyl-3,4-dihydro-1H-pyrano[3,4-c]pyridine-5-carbonitrile]
IC50: 1000 to 10000 nM

Cc1cnn(CC(=O)N2CCN(c3nc(C4CC4)c4c(c3C#N)CC(C)(C)OC4)C[C@H]2C(C)C)c1 [Compound 401, (R)-8-cyclopropyl-6-(3-isopropyl-4-(2-(4-methyl-1H-pyrazol-1-yl)acetyl)piperazin-1-yl)-3,3-dimethyl-3,4-dihydro-1H-pyrano[3,4-c]pyridine-5-carbonitrile]
IC50: < 500 nM

COCC1CN(c2nc(C3CC3)c3c(c2C#N)CC(C)(C)OC3)CCN1C(=O)c1ccoc1 (stereo not drawn) [Compound 402, 8-cyclopropyl-6-(4-(furan-3-carbonyl)-3-(methoxymethyl)piperazin-1-yl)-3,3-dimethyl-3,4-dihydro-1H-pyrano[3,4-c]pyridine-5-carbonitrile]
IC50: 1000 to 10000 nM

COCCC(=O)N1CCN(c2nc(C3CC3)c3c(c2C#N)CC(C)(C)OC3)CC1COC (stereo not drawn) [Compound 403, 8-cyclopropyl-6-(3-(methoxymethyl)-4-(3-methoxypropanoyl)piperazin-1-yl)-3,3-dimethyl-3,4-dihydro-1H-pyrano[3,4-c]pyridine-5-carbonitrile]
IC50: 1000 to 10000 nM

CC(C)[C@@H]1CN(c2nc(C3CC3)c3c(c2C#N)CC(C)(C)OC3)CCN1C(=O)COCc1ccco1 [Compound 404, (R)-8-cyclopropyl-6-(4-(2-(furan-2-ylmethoxy)acetyl)-3-isopropylpiperazin-1-yl)-3,3-dimethyl-3,4-dihydro-1H-pyrano[3,4-c]pyridine-5-carbonitrile]
IC50: 1000 to 10000 nM

CC(C)[C@@H]1CN(c2nc(C3CC3)c3c(c2C#N)CC(C)(C)OC3)CCN1C(=O)Cn1ncc2ccccc21 [Compound 405, (R)-6-(4-(2-(1H-indazol-1-yl)acetyl)-3-isopropylpiperazin-1-yl)-8-cyclopropyl-3,3-dimethyl-3,4-dihydro-1H-pyrano[3,4-c]pyridine-5-carbonitrile]
IC50: 1000 to 10000 nM

CC(C)[C@@H]1CN(c2nc(C3CC3)c3c(c2C#N)CC(C)(C)OC3)CCN1C(=O)Cn1ccc2ccccc21 [Compound 406, (R)-6-(4-(2-(1H-indol-1-yl)acetyl)-3-isopropylpiperazin-1-yl)-8-cyclopropyl-3,3-dimethyl-3,4-dihydro-1H-pyrano[3,4-c]pyridine-5-carbonitrile]
IC50: 1000 to 10000 nM

CC(C)[C@@H]1CN(c2nc(C3CC3)c3c(c2C#N)CC(C)(C)OC3)CCN1C(=O)Cn1nccn1 [Compound 407, (R)-6-(4-(2-(2H-1,2,3-triazol-2-yl)acetyl)-3-isopropylpiperazin-1-yl)-8-cyclopropyl-3,3-dimethyl-3,4-dihydro-1H-pyrano[3,4-c]pyridine-5-carbonitrile]
IC50: 500 to 1000 nM

— US9662327B2 (AGIOS PHARMACEUTICALS, INC, priority 2011, dated 2017)
